{
  "source": "paper PMC3478670",
  "about": "(Journal of medicinal chemistry, 2012)",
  "data": [
    {"tested_on": "HIV-1NL4-3", "assay": "HIV-1NL4-3 replication inhibition assay in MT-4 lymphocytes", "type": "cell-based", "conditions": "HIV-1NL4-3 infected MT-4 cells", "values": [
      {"compound": "C=C(C)[C@@H]1CC[C@]2(C(=O)OCCCCCCCC)CC[C@]3(C)[C@H](CC[C@@H]4[C@@]5(C)CC[C@H](OC(=O)CC(C)(C)C(=O)O)C(C)(C)[C@@H]5CC[C@]43C)[C@@H]12", "note": "[Compound 23, Octyl 3β-O-(3′,3′-dimethylsuccinyl)-lup-20(29)-en-28-oate]", "anti-HIV replication activity (in words)": "no inhibition of HIV-1 replication"},
      {"compound": "C=C(C)[C@@H]1CC[C@]2(C(=O)OCOC)CC[C@]3(C)[C@H](CC[C@@H]4[C@@]5(C)CC[C@H](OCOC)C(C)(C)[C@@H]5CC[C@]43C)[C@@H]12", "note": "[Compound 3, Methoxymethyl 3β-methoxymethoxy-lup-20(29)-en-28-oate]", "anti-HIV replication activity (in words)": "did not show anti-HIV activity"},
      {"compound": "C=C(C)[C@@H]1CC[C@]2(C(=O)OCOCCOC)CC[C@]3(C)[C@H](CC[C@@H]4[C@@]5(C)CC[C@H](OCOCCOC)C(C)(C)[C@@H]5CC[C@]43C)[C@@H]12", "note": "[Compound 4, Methoxyethoxymethyl 3β-methoxyethoxymethoxy-lup-20(29)-en-28-oate]", "anti-HIV replication activity (in words)": "did not show anti-HIV activity"},
      {"compound": "C=C(C)[C@@H]1CC[C@]2(C(=O)O)CC[C@]3(C)[C@H](CC[C@@H]4[C@@]5(C)CC[C@H](OCOC)C(C)(C)[C@@H]5CC[C@]43C)[C@@H]12", "note": "[Compound 5, 3β-Methoxymethoxy-betulinic acid]", "anti-HIV replication activity (in words)": "did not show anti-HIV activity"},
      {"compound": "C=C(C)[C@@H]1CC[C@]2(C(=O)O)CC[C@]3(C)[C@H](CC[C@@H]4[C@@]5(C)CC[C@H](OCOCCOC)C(C)(C)[C@@H]5CC[C@]43C)[C@@H]12", "note": "[Compound 6, 3β-Methoxyethoxymethoxy-betulinic acid]", "anti-HIV replication activity (in words)": "did not show anti-HIV activity"},
      {"compound": "C=C(C)[C@@H]1CC[C@]2(C(=O)OCOCCOC)CC[C@]3(C)[C@H](CC[C@@H]4[C@@]5(C)CC[C@H](O)C(C)(C)[C@@H]5CC[C@]43C)[C@@H]12", "note": "[Compound 8, Methoxyethoxymethyl 3β-hydroxy-lup-20(29)-en-28-oate]", "anti-HIV replication activity (in words)": "did not show anti-HIV activity"},
      {"compound": "C=C(C)[C@@H]1CC[C@]2(C(=O)OCOC)CC[C@]3(C)[C@H](CC[C@@H]4[C@@]5(C)CC[C@H](O)C(C)(C)[C@@H]5CC[C@]43C)[C@@H]12", "note": "[Compound 7, Methoxymethyl 3β-hydroxy-lup-20(29)-en-28-oate]", "anti-HIV replication activity (in words)": "did not show anti-HIV activity"}
    ]},
    {"tested_on": "not listed separately", "assay": "in vitro", "conditions": "human, pooled human liver microsomes, pH 7.4", "units": {"microsomal CLint at 1 μM": "µL/min/mg"}, "values": [
      {"compound": "C=C(C)[C@@H]1CC[C@]2(C(=O)N3CCN(CCCCC(=O)O)CC3)CC[C@]3(C)[C@H](CC[C@@H]4[C@@]5(C)CC[C@H](OC(=O)CC(C)(C)C(=O)O)C(C)(C)[C@@H]5CC[C@]43C)[C@@H]12", "note": "[Compound 41, N-[3β-O-(3′,3′-Dimethylsuccinyl)-lup-20(29)-en-28-oyl]-5-piperazinepentanoic acid]", "microsomal CLint at 1 μM": 2.1}
    ]}
  ]
}
